Experimental data: PubChem BioAssay AID504839 (Johns Hopkins Ion Channel Center, 2011)

Molecular target: Potassium voltage-gated channel subfamily KQT member 2 (Rattus norvegicus) (UniProt O88943)
Assay: PubChem AID 504839
Details: KCNQ2-CHO cells, automated patch clamp current

Chain of Potassium voltage-gated channel subfamily KQT member 2 (Rattus norvegicus) (O88943 whole entry, looked up): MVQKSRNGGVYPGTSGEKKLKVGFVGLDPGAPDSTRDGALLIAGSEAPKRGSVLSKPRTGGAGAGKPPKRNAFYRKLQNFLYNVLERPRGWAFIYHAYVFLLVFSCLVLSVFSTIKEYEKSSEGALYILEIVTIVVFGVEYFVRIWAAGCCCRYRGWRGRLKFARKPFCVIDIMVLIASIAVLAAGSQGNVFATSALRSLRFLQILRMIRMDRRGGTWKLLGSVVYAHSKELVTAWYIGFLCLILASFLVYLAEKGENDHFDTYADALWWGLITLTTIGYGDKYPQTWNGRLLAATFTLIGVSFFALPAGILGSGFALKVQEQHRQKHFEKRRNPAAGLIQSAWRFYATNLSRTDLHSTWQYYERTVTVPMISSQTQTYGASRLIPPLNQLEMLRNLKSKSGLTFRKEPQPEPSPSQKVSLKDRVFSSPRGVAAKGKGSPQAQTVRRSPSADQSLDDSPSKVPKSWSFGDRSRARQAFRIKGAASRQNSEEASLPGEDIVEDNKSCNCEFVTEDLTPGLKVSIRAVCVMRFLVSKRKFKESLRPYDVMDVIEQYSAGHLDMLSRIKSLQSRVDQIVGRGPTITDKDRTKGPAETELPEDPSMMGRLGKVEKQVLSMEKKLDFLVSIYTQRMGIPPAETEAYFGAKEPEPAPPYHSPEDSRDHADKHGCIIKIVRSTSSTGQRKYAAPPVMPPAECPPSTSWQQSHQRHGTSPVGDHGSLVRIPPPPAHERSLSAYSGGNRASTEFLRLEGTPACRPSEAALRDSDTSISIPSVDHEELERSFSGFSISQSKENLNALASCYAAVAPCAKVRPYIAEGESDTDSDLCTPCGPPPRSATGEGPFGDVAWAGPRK

CCC(C(=O)Nc1ccccc1N1CCCC1)c1ccccc1 (stereo unspecified)
IC50: 0.16 µM
